In patent publication US6350765B1, “Fungicidal mixtures based on amide compounds and azoles” (priority 2000, dated 2002) one finds pest or weed control data, which are given here for eight compounds.

The test system of the assay is Botrytis cinerea. Description: Activity against Botrytis cinerea on bell peppers (fruit disks, protective spray). As to conditions: in Capsicum, 96 h, read-out: Efficacy in % of the untreated control. The format is in vivo. The protocol:
The active ingredients, separately or together, are formulated as a 10% emulsion in a mixture of 63% by weight of cyclohexanone and 27% by weight of emulsifier, and diluted with water to the desired concentration.
Evaluation is carried out by determining the infected leaf areas in percent. These percentages are converted into efficacies. The efficacy (W) is calculated as follows using Abbot's formula: […]
α corresponds to the fungal infection of the treated plants in % and β corresponds to the fungal infection of the untreated (control) plants in % An efficacy of 0 means that the infection level of the treated plants corresponds to that of the untreated control plants; an efficacy of 100 means that the treated plants were not infected.
The expected efficacies of the mixtures of the active ingredients were determined using Colby's formula [R. S. Colby, Weeds 15, 20-22 (1967)] and compared with the observed efficacies.
Colby's formula: E=x+y−x·y/100
E expected efficacy, expressed in % of the untreated control, when using the mixture of the active ingredients A and B at the concentrations a and b x efficacy, expressed in % of the untreated control, when using active ingredient A at the concentration a y efficacy, expressed in % of the untreated control, when using active ingredient B at the concentration b Activity against Botrytis cinerea on bell peppers
Disks of green bell peppers were sprayed to runoff point with an aqueous preparation of active ingredient which had been prepared is from a stock solution comprising 10% of active ingredient, 63% of cyclohexanone and 27% of emulsifier. 2 hours after the spray coating had dried on, the fruit disks were inoculated with a spore suspension of Botrytis cinerea containing 1.7×10^6 spores per ml of a 2% strength Biomalz solution. The inoculated fruit disks were subsequently incubated in humid chambers at 18° C. for 4 days. The Botrytis infection on the diseased fruit disks was then evaluated visually.
The visually determined values for the percentage of diseased leaf areas were converted into efficacies as percentage of the untreated control. An efficacy of 0 means the same disease level as in the untreated control, an efficacy of 100 means 0% disease. The expected efficacies for active ingredient combinations were determined using Colby's formula (Colby, S. R. “Calculating synergistic and antagonistic responses of herbicide Combinations”, Weeds, 15, p. 20-22, 1967) and compared with the observed efficacies.

Setting [1] is: single active ingredient, 16 ppm in the spray liquor, green bell pepper disks, 4 days at 18° C.
[2] abbreviates: single active ingredient, 31 ppm in the spray liquor, green bell pepper disks, 4 days at 18° C.

Where two headings read alike, the source gives them in different places.

Turning to `CCCC1COC(Cn2cncn2)(c2ccc(Cl)cc2Cl)O1` (racemic) [Compound II.12, (±)-1-[2-(2,4-dichlorophenyl)-4-propyl-1,3-dioxolan-2-ylmethyl]-1H-1,2,4-triazole], the pest or weed control at 16 ppm under setting [1] came to 0%.
As for `O=C(Nc1ccccc1-c1ccc(F)cc1)c1cccnc1Cl` [Compound I.1], the pest or weed control at 16 ppm came out at 10% and the pest or weed control at 31 ppm worked out at 60%.
Take `O=C(Nc1ccccc1-c1ccc(Cl)cc1)c1cccnc1Cl` [Compound I.2]: the pest or weed control at 16 ppm came to 80%.
For the compound `CC(C1CC1)C(O)(Cn1cncn1)c1ccc(Cl)cc1` (stereo not shown) [Compound II.2, 2-(4-chlorophenyl)-3-cyclopropyl-1-(1H-1,2,4-triazol-1-yl)-butan-2-ol], the pest or weed control at 16 ppm under setting [1] came to 0%. In addition, the pest or weed control at 31 ppm under setting [2] turned out to be 10%.
On the same counts, the results for `Fc1ccc(C2(Cn3cncn3)OC2c2ccccc2Cl)cc1` (stereo not shown) [Compound II.5, (Z)-2-(1H-1,2,4-triazol-1-ylmethyl)-2-(4-fluorophenyl)-3-(2-chlorophenyl)-oxirane] are 0% and 0%.
As for `C[Si](Cn1cncn1)(c1ccc(F)cc1)c1ccc(F)cc1` [Compound II.8, bis(4-fluorophenyl)(methyl)(1H-1,2,4-triazol-1-ylmethyl)-silane], the pest or weed control at 16 ppm under setting [1] came to 0%. Besides, the pest or weed control at 31 ppm under setting [2] is 0%.
Consider `CCCN(CCOc1c(Cl)cc(Cl)cc1Cl)C(=O)n1ccnc1` [Compound II.11, N-propyl-N-[2-(2,4,^6-trichlorophenoxy)ethyl]imidazol-1-carboxamide], for which the pest or weed control at 16 ppm came to 0% and the pest or weed control at 31 ppm worked out at 0%.
Take `CCCCC(C#N)(Cn1cncn1)c1ccc(Cl)cc1` (stereo not shown) [Compound II.17, 2-p-chlorophenyl-2-(1H-1,2,4-triazol-1-ylmethyl)hexanenitrile]: the pest or weed control at 16 ppm under setting [1] was found to be 0%.
